Legend:
Format in all cases: cell-based
[1] = target: T1, heteromeric KV7.2/KV7.3 channels (KCNQ2, KCNQ3) (Homo sapiens, UniProt O43525+O43526); assay: Automated patch-clamp (Sophion Qube 384) potency assay against KV7.2/KV7.3 channels; conditions: CHO-K1/Kv7.2/Kv7.3 cells; for EC50: EC50 from concentration-response of shift in Vhalf, 10 concentrations up to 30 μM, read-out: Kv7.2/7.3 EC50; for Kv7.2/7.3 ΔV1/2: maximal shift in the Vhalf from the top of the curve
T1 construct: expressed in transfected cells; host or cells: CHO-K1
How it was run: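 Whole-cell automated patch clamp on CHO-K1 cells stably expressing human KV7.2/KV7.3, held at −80 mV; I-V steps −100 to +20 mV (1 s) with 0 mV tail pulses, Boltzmann-fitted activation curves. Ten concentrations (1:3 from 30 μM, quadruplicate) versus 0.3% DMSO control; EC50 and maximal shift from 4-parameter fits of Vhalf shift.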

[2] = target: T2, homomeric KV7.4 channel (KCNQ4) (Homo sapiens, UniProt P56696); assay: Automated patch-clamp (Qube) counter-screening assay against KV7.4 channel; conditions: CHO-K1 cells expressing KV7.4; class by maximal shift in the Vhalf at 30 μM
T2 construct: host or cells: CHO-K1
How it was run: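 CHO-K1 cells stably expressing homomeric human KV7.4 were recorded on the Qube automated patch clamp. Ten concentrations (1:3 dilutions from 30 μM) were tested in quadruplicate. The mean Vhalf shift was fitted with a 4-parameter logistic to give EC50 and maximal Vhalf shift, and selectivity was based on the shift at 30 μM.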

[3] = target: T3, heteromeric KV7.3/KV7.5 channel (KCNQ3, KCNQ5) (Homo sapiens, UniProt O43525+Q9NR82); assay: Automated patch-clamp counter-screening against KV7.3/KV7.5 channel; conditions: HEK293 cells expressing Kv7.3/KV7.5; class by maximal shift in the Vhalf at 30 μM
T3 construct: host or cells: HEK293
How it was run: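 HEK293 cells with constitutive Kv7.3 and tetracycline-inducible Kv7.5 were recorded by automated patch clamp. Ten concentrations (1:3 series from 30 μM, quadruplicate) were tested; Vhalf shifts were fitted with a 4-parameter logistic to give EC50 and maximal Vhalf shift, with selectivity based on the shift at 30 μM.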

EC50 [1] [µM]	Kv7.2/7.3 ΔV1/2 [1] [mV]	SMILES	Kv7.4 selectivity criteria [2]	Kv7.3/7.5 selectivity criteria [3]
0.975	26.04	O=C(NCc1ccnc(OCC(F)(F)F)c1)NCC1CCC(F)(F)CC1 [Compound 70, 1-((4,4-Difluorocyclohexyl)methyl)-3-((2-(2,2,2-trifluoroethoxy)pyridin-4-yl)methyl)urea]	A (Selective compounds showed Kv7.4 and/or Kv7.3/7.5 ΔV1/2 equal to or lower than 15 mV (letter A in table 3))	A (Selective compounds showed Kv7.4 and/or Kv7.3/7.5 ΔV1/2 equal to or lower than 15 mV (letter A in table 3))
3.83	35.23	O=C(NCc1ccnc(C(F)(F)F)c1)Nc1cc(F)cc(Cl)c1 [Compound 102]	B (Non-selective compounds showed Kv7.4 and/or Kv7.3/7.5 ΔV1/2 higher than 15 mV (letter B in table 3))	B (Non-selective compounds showed Kv7.4 and/or Kv7.3/7.5 ΔV1/2 higher than 15 mV (letter B in table 3))
4.46	34.16	C[C@@H](Oc1nccc(CNC(=O)NCCC2(C(F)(F)F)CC2)n1)C(F)(F)F [Compound 93]	B (Non-selective compounds showed Kv7.4 and/or Kv7.3/7.5 ΔV1/2 higher than 15 mV (letter B in table 3))	A (Selective compounds showed Kv7.4 and/or Kv7.3/7.5 ΔV1/2 equal to or lower than 15 mV (letter A in table 3))
0.966	16.51	O=C(NCc1cccc(F)c1)NCc1ccnc(OCc2ccccc2)c1 [Compound 2, 1-((2-(Benzyloxy)pyridin-4-yl)methyl)-3-(3-fluorobenzyl)urea]	A (Selective compounds showed Kv7.4 and/or Kv7.3/7.5 ΔV1/2 equal to or lower than 15 mV (letter A in table 3))	A (Selective compounds showed Kv7.4 and/or Kv7.3/7.5 ΔV1/2 equal to or lower than 15 mV (letter A in table 3))
2.66	28.4	O=C(NCc1ccnc(OCC(F)(F)F)c1)N[C@@H]1COc2ccc(F)cc21 [Compound 165]	A (Selective compounds showed Kv7.4 and/or Kv7.3/7.5 ΔV1/2 equal to or lower than 15 mV (letter A in table 3))	A (Selective compounds showed Kv7.4 and/or Kv7.3/7.5 ΔV1/2 equal to or lower than 15 mV (letter A in table 3))
0.82	19.56	Cc1ccccc1CNC(=O)NCc1ccnc(OCC(F)(F)F)c1 [Compound 37, 1-(2-Methylbenzyl)-3-((2-(2,2,2-trifluoroethoxy)pyridin-4-yl)methyl)urea]	A (Selective compounds showed Kv7.4 and/or Kv7.3/7.5 ΔV1/2 equal to or lower than 15 mV (letter A in table 3))	A (Selective compounds showed Kv7.4 and/or Kv7.3/7.5 ΔV1/2 equal to or lower than 15 mV (letter A in table 3))
7.65	13.2	O=C(NCCC1(C(F)(F)F)CC1)NCc1ccnc(OCC2CCOCC2)c1 [Compound 12, 1-((2-((Tetrahydro-2H-pyran-4-yl)methoxy)pyridin-4-yl)methyl)-3-(2-(1-(trifluoromethyl)cyclopropyl)ethyl)urea]	A (Selective compounds showed Kv7.4 and/or Kv7.3/7.5 ΔV1/2 equal to or lower than 15 mV (letter A in table 3))	A (Selective compounds showed Kv7.4 and/or Kv7.3/7.5 ΔV1/2 equal to or lower than 15 mV (letter A in table 3))
0.96	30.26	O=C(NCc1ccnc(OCC(F)(F)F)c1)NCC1CCC(F)(F)C1 (centres unmarked) [Compound 88, 1-((3,3-Difluorocyclopentyl)methyl)-3-((2-(2,2,2-trifluoroethoxy)pyridin-4-yl)methyl) urea]	A (Selective compounds showed Kv7.4 and/or Kv7.3/7.5 ΔV1/2 equal to or lower than 15 mV (letter A in table 3))	B (Non-selective compounds showed Kv7.4 and/or Kv7.3/7.5 ΔV1/2 higher than 15 mV (letter B in table 3))
7	26.66	C#CCOc1cc(CNC(=O)NCC2CCC(F)(F)CC2)ccn1 [Compound 161]	A (Selective compounds showed Kv7.4 and/or Kv7.3/7.5 ΔV1/2 equal to or lower than 15 mV (letter A in table 3))	A (Selective compounds showed Kv7.4 and/or Kv7.3/7.5 ΔV1/2 equal to or lower than 15 mV (letter A in table 3))
1.92	28.73	C[C@H](NC(=O)N[C@@H]1CCc2ccc(F)cc21)c1ccnc(OCC(F)(F)F)n1 [Compound 110]	A (Selective compounds showed Kv7.4 and/or Kv7.3/7.5 ΔV1/2 equal to or lower than 15 mV (letter A in table 3))	B (Non-selective compounds showed Kv7.4 and/or Kv7.3/7.5 ΔV1/2 higher than 15 mV (letter B in table 3))
5.13	22.31	CN(Cc1ccnc(OCC(F)(F)F)c1)C(=O)NCCC1(C(F)(F)F)CC1 [Compound 7, 1-Methyl-1-((2-(2,2,2-trifluoroethoxy)pyridin-4-yl)methyl)-3-(2-(1-(trifluoromethyl)cyclopropyl)ethyl)urea]	A (Selective compounds showed Kv7.4 and/or Kv7.3/7.5 ΔV1/2 equal to or lower than 15 mV (letter A in table 3))	A (Selective compounds showed Kv7.4 and/or Kv7.3/7.5 ΔV1/2 equal to or lower than 15 mV (letter A in table 3))
0.617	24.51	O=C(NCc1ccnc(OCC(F)(F)F)c1)Nc1cccc2c1CCC2 [Compound 154]	A (Selective compounds showed Kv7.4 and/or Kv7.3/7.5 ΔV1/2 equal to or lower than 15 mV (letter A in table 3))	A (Selective compounds showed Kv7.4 and/or Kv7.3/7.5 ΔV1/2 equal to or lower than 15 mV (letter A in table 3))
0.683	18.25	COc1cc2c(cc1F)CCC2NC(=O)NCc1ccnc(OCC(F)(F)F)c1 (centres unmarked) [Compound 125]	A (Selective compounds showed Kv7.4 and/or Kv7.3/7.5 ΔV1/2 equal to or lower than 15 mV (letter A in table 3))	A (Selective compounds showed Kv7.4 and/or Kv7.3/7.5 ΔV1/2 equal to or lower than 15 mV (letter A in table 3))
2.71	26.22	COc1ccc2c(c1)CCC2NC(=O)NCc1ccnc(OCC(F)(F)F)c1 (centres unmarked) [Compound 122]	A (Selective compounds showed Kv7.4 and/or Kv7.3/7.5 ΔV1/2 equal to or lower than 15 mV (letter A in table 3))	A (Selective compounds showed Kv7.4 and/or Kv7.3/7.5 ΔV1/2 equal to or lower than 15 mV (letter A in table 3))
0.152	26.28	C[C@@H](NC(=O)NCCC1(C(F)(F)F)CC1)c1ccnc(OCC(F)(F)F)c1 [Compound 65, (R)-1-(1-(2-(2,2,2-Trifluoroethoxy)pyridin-4-yl)ethyl)-3-(2-(1-(trifluoromethyl)cyclopropyl)ethyl)urea]	A (Selective compounds showed Kv7.4 and/or Kv7.3/7.5 ΔV1/2 equal to or lower than 15 mV (letter A in table 3))	A (Selective compounds showed Kv7.4 and/or Kv7.3/7.5 ΔV1/2 equal to or lower than 15 mV (letter A in table 3))
1.55	15.05	Cc1ccc2c(c1)[C@@H](NC(=O)NCc1ccnc(OCC(F)(F)F)c1)CC2 [Compound 159]	A (Selective compounds showed Kv7.4 and/or Kv7.3/7.5 ΔV1/2 equal to or lower than 15 mV (letter A in table 3))	A (Selective compounds showed Kv7.4 and/or Kv7.3/7.5 ΔV1/2 equal to or lower than 15 mV (letter A in table 3))
2.68	23.26	O=C(NCc1ccnc(OCC(F)(F)F)c1)NC1CCc2sccc21 (centres unmarked) [Compound 144]	A (Selective compounds showed Kv7.4 and/or Kv7.3/7.5 ΔV1/2 equal to or lower than 15 mV (letter A in table 3))	A (Selective compounds showed Kv7.4 and/or Kv7.3/7.5 ΔV1/2 equal to or lower than 15 mV (letter A in table 3))
1.34	42.63	O=C(NCC1CCCCC1)N[C@@H](CO)c1ccnc(OCC(F)(F)F)c1 [Compound 103]	A (Selective compounds showed Kv7.4 and/or Kv7.3/7.5 ΔV1/2 equal to or lower than 15 mV (letter A in table 3))	B (Non-selective compounds showed Kv7.4 and/or Kv7.3/7.5 ΔV1/2 higher than 15 mV (letter B in table 3))
1.08	36.41	O=C(NCc1ccnc(OCC(F)(F)F)c1)N[C@@H]1CCc2cc(F)c(F)cc21 [Compound 119]	A (Selective compounds showed Kv7.4 and/or Kv7.3/7.5 ΔV1/2 equal to or lower than 15 mV (letter A in table 3))	B (Non-selective compounds showed Kv7.4 and/or Kv7.3/7.5 ΔV1/2 higher than 15 mV (letter B in table 3))
0.351	22.58	O=C(NCc1ccnc(OCC(F)(F)F)c1)NC1CCc2c(F)cc(F)cc21 (centres unmarked) [Compound 135]	A (Selective compounds showed Kv7.4 and/or Kv7.3/7.5 ΔV1/2 equal to or lower than 15 mV (letter A in table 3))	A (Selective compounds showed Kv7.4 and/or Kv7.3/7.5 ΔV1/2 equal to or lower than 15 mV (letter A in table 3))

From patent US20260207563A1, “UREA COMPOUNDS AS ACTIVATORS OF POTASSIUM CHANNELS KV7.2/7.3 USEFUL IN THE TREATMENT OF CNS AND PNS DISORDERS” (ANGELINI PHARMA S.P.A., priority 2022, published 2026)
